Data: patent US20220402925A1, “COMPOUNDS AND METHODS FOR THE TREATMENT OF CYSTIC FIBROSIS” (Flatley Discovery Lab, LLC, priority 2019, published 2022)

Target: T1, F508del CFTR (Homo sapiens, UniProt P13569, DEL508-508)
T1 construct: Primary CF airway epithelial cells were obtained from the UNC Cystic Fibrosis Tissue Procurement and Cell Culture Core; host or cells: primary CF airway epithelial cells
Experiment: Equivalent current assay in primary CF airway epithelial cells (Corrector Activity, NAUC normalized to 3 μM VX809)
Assay type: cell-based
Settings: NAUC as % of positive control (VX-809)
In short: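 Readout is NAUC: current area from forskolin/potentiator addition until CFTR-172, minus vehicle, relative to 3 μM VX809 (=1.0). Cells were primary CF epithelia at air-liquid interface ≥4 weeks, given basolateral compound for 24 h at 37° C; median of n≥4 replicates, sigmoid fit with nH fixed at 1.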

T1 sequence (P13569 with tags, fused parts or gaps DEL508-508): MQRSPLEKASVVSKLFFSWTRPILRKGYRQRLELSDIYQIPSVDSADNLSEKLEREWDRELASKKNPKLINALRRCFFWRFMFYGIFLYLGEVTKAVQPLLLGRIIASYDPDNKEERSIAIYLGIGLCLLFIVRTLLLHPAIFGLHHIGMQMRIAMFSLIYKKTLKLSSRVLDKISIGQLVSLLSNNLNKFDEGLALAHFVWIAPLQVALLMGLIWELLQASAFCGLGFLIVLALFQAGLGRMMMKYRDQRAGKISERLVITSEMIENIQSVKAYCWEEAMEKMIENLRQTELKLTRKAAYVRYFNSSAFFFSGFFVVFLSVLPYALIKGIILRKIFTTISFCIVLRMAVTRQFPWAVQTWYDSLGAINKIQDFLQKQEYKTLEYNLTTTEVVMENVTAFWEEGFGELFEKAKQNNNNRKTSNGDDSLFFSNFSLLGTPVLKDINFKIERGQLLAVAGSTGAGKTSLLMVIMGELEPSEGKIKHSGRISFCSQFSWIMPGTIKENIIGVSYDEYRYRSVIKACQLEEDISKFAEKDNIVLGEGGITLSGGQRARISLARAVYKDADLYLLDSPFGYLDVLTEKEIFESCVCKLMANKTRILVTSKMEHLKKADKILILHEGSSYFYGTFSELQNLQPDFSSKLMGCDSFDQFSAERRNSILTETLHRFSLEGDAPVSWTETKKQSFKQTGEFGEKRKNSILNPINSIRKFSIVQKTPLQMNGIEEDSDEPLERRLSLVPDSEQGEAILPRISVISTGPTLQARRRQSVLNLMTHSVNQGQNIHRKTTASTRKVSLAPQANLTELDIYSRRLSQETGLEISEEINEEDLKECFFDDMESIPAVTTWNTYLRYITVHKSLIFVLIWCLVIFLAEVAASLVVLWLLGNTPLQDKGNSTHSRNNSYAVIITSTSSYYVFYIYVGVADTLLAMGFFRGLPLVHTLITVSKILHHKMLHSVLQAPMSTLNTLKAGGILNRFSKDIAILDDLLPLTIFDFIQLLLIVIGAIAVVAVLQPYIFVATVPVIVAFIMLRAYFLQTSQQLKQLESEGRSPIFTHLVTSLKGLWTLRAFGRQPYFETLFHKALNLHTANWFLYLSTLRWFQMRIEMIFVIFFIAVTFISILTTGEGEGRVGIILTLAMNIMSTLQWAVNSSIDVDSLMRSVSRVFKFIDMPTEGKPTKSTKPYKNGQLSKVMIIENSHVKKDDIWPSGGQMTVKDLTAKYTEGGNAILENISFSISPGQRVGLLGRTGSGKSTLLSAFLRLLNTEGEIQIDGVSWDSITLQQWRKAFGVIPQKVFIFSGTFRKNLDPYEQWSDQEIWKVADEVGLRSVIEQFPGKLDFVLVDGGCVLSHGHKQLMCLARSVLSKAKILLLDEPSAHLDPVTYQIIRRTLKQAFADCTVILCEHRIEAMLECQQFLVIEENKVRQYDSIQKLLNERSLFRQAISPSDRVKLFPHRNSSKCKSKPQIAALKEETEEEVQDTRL

SMILES | Corr Activity (NAUC)
CCN(C(=O)Cn1nc(-c2cc(F)cc(OC)c2)c2oc(C3CCC3)cc2c1=O)c1ccc2c(c1)OC(F)(F)O2 [Example 241] | +++ (NAUC>70% of positive control)
CCN(C(=O)Cn1nc(-c2cccc(Cl)c2)c2oc(C(=O)NC(C)(C)C)cc2c1=O)c1ccc2c(c1)OC(F)(F)O2 [Example 120] | +++ (NAUC>70% of positive control)
Cc1nc2ccc(N(C)C(=O)Cn3nc(-c4cccc(F)c4)c4sccc4c3=O)cc2o1 [Example 1, 2-(7-(3-Fluorophenyl)-4-oxothieno[2,3-d]pyridazin-5(4H)-yl)-N-methyl-N-(2-methylbenzo[d]oxazol-6-yl)acetamide] | +++ (NAUC>70% of positive control)
CCN(C(=O)Cn1nc(-c2cccc(C#N)c2)c2occc2c1=O)c1ccc(C(F)(F)F)cc1 [Example 61] | + (NAUC<40% of positive control)
CN(C(=O)Cn1nc(-c2cc(C#N)cc(C(F)(F)F)c2)c2occc2c1=O)c1ccc2c(c1)OC(F)(F)O2 [Example 98] | ++ (NAUC 70-40% of positive control)
Cc1c(N(C)C(=O)Cn2nc(-c3cc(F)cc(C#N)c3)c3occc3c2=O)ccc2c1OC(F)(F)O2 [Example 170] | ++ (NAUC 70-40% of positive control)
N#Cc1cccc(-c2nn(CC(=O)N3CC4(CC4)c4c3ccc3c4OC(F)(F)O3)c(=O)c3ccoc23)c1 [Example 58] | + (NAUC<40% of positive control)
Cc1cc2c(cc1N(C)C(=O)Cn1nc(-c3cc(F)cc(C#N)c3)c3occ(C(F)(F)F)c3c1=O)OC(F)(F)O2 [Example 178] | + (NAUC<40% of positive control)
CCN(C(=O)Cn1nc(-c2cc(Cl)cc(Cl)c2)c2oc(C3CC3)cc2c1=O)c1ccc2c(c1)OC(F)(F)O2 [Example 221] | +++ (NAUC>70% of positive control)
Cc1cc(C#N)cc(-c2nn(CC(=O)N3CCCc4c3ccc3c4OC(F)(F)O3)c(=O)c3ccoc23)c1 [Example 163] | +++ (NAUC>70% of positive control)
CCN(C(=O)Cn1nc(-c2cc(Cl)cc(C#N)c2)c2oc(C(F)F)cc2c1=O)c1ccc2c(c1C)OC(F)(F)O2 [Example 196] | ++ (NAUC 70-40% of positive control)
CN(C(=O)Cn1nc(-c2cccc(OC(C)(C)C)c2)c2oc(C(=O)NC(C)(C)C)cc2c1=O)c1ccc2c(c1)OC(F)(F)O2 [Example 123] | + (NAUC<40% of positive control)
Cc1cc(Cl)cc(-c2nn(CC(=O)N(C)c3ccc4c(c3)OC(F)(F)O4)c(=O)c3ccoc23)c1 [Example 85] | +++ (NAUC>70% of positive control)
CCN(C(=O)Cn1nc(-c2cc(C#N)cc(OC)c2)c2occc2c1=O)c1ccc2c(c1)OC(F)(F)O2 [Example 110] | +++ (NAUC>70% of positive control)
CCN(C(=O)Cn1nc(-c2cc(F)cc(Cl)c2)c2occc2c1=O)c1ccc2c(c1)OC(F)(F)O2 [Example 176] | +++ (NAUC>70% of positive control)
O=C(Cn1nc(-c2cccc(F)c2)c2occc2c1=O)N1CCCc2c1ccc1c2OC(F)(F)O1 [Example 162] | +++ (NAUC>70% of positive control)
CCc1cc2c(cc1N(CC)C(=O)Cn1nc(-c3cccc(C#N)c3)c3occc3c1=O)OC(F)(F)O2 [Example 56] | + (NAUC<40% of positive control)
CCN(C(=O)Cn1nc(-c2cccc(C#N)c2)c2oc(C(=O)NC(C)(C)C(F)(F)F)cc2c1=O)c1ccc2c(c1)OC(F)(F)O2 [Example 149] | +++ (NAUC>70% of positive control)
CN(C(=O)Cn1nc(-c2cc(Cl)cc(Cl)c2)c2occc2c1=O)c1ccc2c(c1)OC(F)(F)O2 [Example 42] | +++ (NAUC>70% of positive control)
Cc1cc2c(cc1N(C)C(=O)Cn1nc(-c3cc(Cl)cc(C#N)c3)c3oc(C(F)F)cc3c1=O)OC(F)(F)O2 [Example 193] | +++ (NAUC>70% of positive control)
Cc1nc2ccc(N(C)C(=O)Cn3nc(-c4cccc(Cl)c4)c4c(c3=O)CCC4)cc2o1 [Example 48] | ++ (NAUC 70-40% of positive control)
CCN(C(=O)Cn1nc(-c2cc(C#N)cc(OC)c2)c2oc(C(F)F)cc2c1=O)c1ccc2c(c1)OC(F)(F)O2 [Example 190] | +++ (NAUC>70% of positive control)

Results, then the compound that gave them:

Corr Activity (NAUC) | SMILES
+++ (NAUC>70% of positive control) | CN(C)c1ccc(-c2nn(CC(=O)N(c3ccc4c(c3)OC(F)(F)O4)C3CC3)c(=O)c3nc[nH]c23)cc1C#N [Example 486]
+++ (NAUC>70% of positive control) | Cc1cc(Cl)cc(-c2nn(CC(=O)N(c3ccc4c(c3)OC(F)(F)O4)C3CC3)c(=O)c3nc[nH]c23)c1 [Example 392]
++ (NAUC 70-40% of positive control) | CC(C)COc1cc(F)cc(-c2nn(CC(=O)N(c3ccc4c(c3)OC(F)(F)O4)C3CC3)c(=O)c3nc[nH]c23)c1 [Example 384]
+ (NAUC<40% of positive control) | CCN(C(=O)Cn1nc(-c2ccc3c(c2)OC(F)(F)O3)c2[nH]cnc2c1=O)c1ccc2c(c1)OC(F)(F)O2 [Example 311]
+ (NAUC<40% of positive control) | CCN(C(=O)Cn1nc(-c2ccc3c(cnn3C(C)C)c2)c2[nH]cnc2c1=O)c1ccc2c(c1)OC(F)(F)O2 [Example 310]
++ (NAUC 70-40% of positive control) | O=C(Cn1nc(-c2ccc(OCC3CC3)c(Cl)c2)c2[nH]cnc2c1=O)N(c1ccc2c(c1)OC(F)(F)O2)C1CC1 [Example 465]
+ (NAUC<40% of positive control) | COc1cc(-c2nn(CC(=O)N(c3ccc4c(c3)OC(F)(F)O4)C3CC3)c(=O)c3nc[nH]c23)cc(C(F)(F)F)c1 [Example 387]
+ (NAUC<40% of positive control) | CCN(C(=O)Cn1nc(-c2ccc3c(ccn3Cc3ccccc3)c2)c2[nH]cnc2c1=O)c1ccc2c(c1)OC(F)(F)O2 [Example 296]
++ (NAUC 70-40% of positive control) | COc1cc(F)cc(-c2nn(CC(=O)N(c3ccc4c(c3)OC(F)(F)O4)C3CC3)c(=O)c3nc[nH]c23)c1 [Example 383]
++ (NAUC 70-40% of positive control) | CCN(C(=O)Cn1nc(-c2ccc3c(c2)ncn3-c2ccccc2)c2[nH]cnc2c1=O)c1ccc2c(c1)OC(F)(F)O2 [Example 313]
+ (NAUC<40% of positive control) | CCN(C(=O)Cn1nc(-c2ccc3ocnc3c2)c2[nH]cnc2c1=O)c1ccc2c(c1)OC(F)(F)O2 [Example 303]
+ (NAUC<40% of positive control) | O=C(Cn1nc(-c2ccc3c(ccn3S(=O)(=O)c3ccccc3)c2)c2[nH]cnc2c1=O)N(c1ccc2c(c1)OC(F)(F)O2)C1CC1 [Example 423]
+ (NAUC<40% of positive control) | CC(C)Oc1cc(-c2nn(CC(=O)N(c3ccc4c(c3)OC(F)(F)O4)C3CC3)c(=O)c3nc[nH]c23)cc(C(F)(F)F)c1 [Example 377]
++ (NAUC 70-40% of positive control) | O=C(Cn1nc(-c2cc(F)cc(OCC(F)(F)F)c2)c2[nH]cnc2c1=O)N(c1ccc2c(c1)OC(F)(F)O2)C1CC1 [Example 393]
++ (NAUC 70-40% of positive control) | CCN(C(=O)Cn1nc(-c2ccc(C#N)c(Cl)c2)c2[nH]cnc2c1=O)c1ccc2c(c1)OC(F)(F)O2 [Example 336]
+++ (NAUC>70% of positive control) | CCN(C(=O)Cn1nc(-c2ccc(OCC3CC3)c(Cl)c2)c2[nH]cnc2c1=O)c1ccc2c(c1)OC(F)(F)O2 [Example 347]
